Data on five compounds can be found in patent US20260306377A1, “ANTIMICROBIAL COMPOSITIONS CONTAINING A CATIONIC ANTIMICROBIAL AND AN ACIDIC GLYCOLOPID” (LANXESS CORPORATION, priority 2023, published 2026).

For this test, the system named is mixed bacterial inoculum and mixed fungal inoculum. Briefly: challenge test, overall result (bacteria and fungi). The test is classed as cell-based. The conditions noted are these: anionic xanthan gum lotion dosed with the substance(s). The method, then: Preservative activity in representative formulations was evaluated by using a modification of the Personal Care Products Council (PCPC) protocol (Machtiger, et al. 2001. Determination of the Efficacy of Preservation of Non-Eye Area Water Miscible Cosmetic and Toiletry Formulations: Collaborative Study. J of AOAC International. 84:1, 101-109). The evaluation was conducted using a four week, two-cycle microbial preservative efficacy test (challenge test) at 25° C. to determine the preservative efficacy of each treatment.
Xanthan gum is commonly used as a natural rheological modifier in personal care products. The formulation below was made by heating the aqueous (A) and oil (B) phases separately to 75-80° C. The oil phase was then poured into the aqueous phase and mixed by an overhead mixer and a homogenizer. The oil-in-water emulsion was cooled to room temperature. Sodium hydroxide solution was used to adjust the pH.
Lotion formulation samples were dosed with certain test materials as shown further below and mixed thoroughly at room temperature, and the formulation samples were divided into two separate aliquots of 5 gram each. One aliquot was inoculated with 50 μl of a diluted bacterial pool, the second aliquot was inoculated with 50 μl of a diluted fungal pool as described below. Unpreserved product samples were included in the test as a growth control.
A mixed bacterial inoculum was prepared using 24-hour cultures of the test bacteria (Table 2) grown in trypticase soy broth (TSB). Equal volumes of the bacterial test strains were combined and diluted one to ten in phosphate buffer to obtain an inoculum of approximately 5×10^7 to 5×10^8 colony forming units per ml (cfu/ml). The test samples were inoculated with 1% of the mixed bacterial inoculum. A mixed fungal inoculum was prepared using cell suspensions of the yeast Candida albicans ATCC #10231 and the mold Aspergillus brasiliensis ATCC #16404 in phosphate buffer. Equal volumes of the fungal test strains were combined and diluted one to ten with phosphate buffer to obtain an inoculum of approximately 5×10^6 to 5×10^7 cfu/ml. The test samples were inoculated with […] of the mixed fungal inoculum.
The samples were subjected to microbial challenge at time zero and inoculated a second time after seven days. The number of microorganisms added to each sample was determined by a standard Most Probable Number (MPN) determination in Trypticase Soy Broth (TSB) for bacteria and Potato Dextrose Broth (PDB) for fungi. Samples were incubated at 25° C. for the test duration of four weeks. Samples were monitored for bacterial and fungal contamination after 2, 7, 14, 21, and 28 days. Samples challenged with bacteria were streak-plated onto Trypticase Soy Agar (TSA) and incubated at 30° C. for 24 hours. Samples challenged with fungi were streak-plated onto Potato Dextrose Agar (PDA) and incubated at 25° C. for 7 days. After incubation, plates were given a Growth Rating to determine the colony forming units per gram (CFU/g) present in each test sample at the testing time point. As is used by various challenge test methods, the passing criteria is more stringent for bacteria than for fungi. […]
For bacteria challenge testing, a composition was scored as “Pass” if the composition obtained a growth rating score caused by bacteria of 1 or less at days 21-28 of the testing period and was scored as “Fail” if the composition obtained a growth rating score caused by bacteria of 2 or more at days 21-28 of the testing period. […]
Consider `N=C(NCCCCCCNC(=N)NC(=N)Nc1ccc(Cl)cc1)NC(=N)Nc1ccc(Cl)cc1.O=C(O)[C@H](O)[C@@H](O)[C@H](O)[C@H](O)CO.O=C(O)[C@H](O)[C@@H](O)[C@H](O)[C@H](O)CO` [CHD.G, Chlorhexidine digluconate], for which the “challenge test outcome (in words)” value is recorded as “none of the lotion formulations passed the challenge test”.

On to `CCCCCCCC(=O)OCC(O)CO` (centres unmarked) [GC, Glyceryl caprylate], for which the “challenge test outcome (in words)” value is on record as “none of the lotion formulations passed the challenge test”.

Take `CC(=O)c1ccc(O)cc1` [HAP, 4-Hydroxyacetophenone]: the “challenge test outcome (in words)” value is listed as “none of the lotion formulations passed the challenge test”.

With `CCCCCCCCCCCC(=O)N[C@@H](CCCN=C(N)N)C(=O)OCC.Cl` [LAE, Ethyl lauroyl arginate HCl], the “challenge test outcome (in words)” value is given as “none of the lotion formulations passed the challenge test”.

On to `O=C(O)c1ccccc1` [NaBz, Sodium benzoate], for which the “challenge test outcome (in words)” value is recorded as “none of the lotion formulations passed the challenge test”.
